# Laboratory results published in US10059694B2, “2-aminopyrimidine compound and pharmaceutical composition and use thereof” (Shanghai Institute of Materia Medica, Chinese Academy of …, priority 2014, dated 2018).
# Key:
# EGFR^T790M/L858R = molecular target: T1, EGFR^T790M/L858R (Homo sapiens, UniProt P00533, L858R/T790M); test: kinase inhibitory activity test (ELISA), EGFR^T790M/L858R; type: biochemical
# T1 construct: purchased Millipore
# Method in brief: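 ELISA on poly(Glu,Tyr)4:1-coated plates; kinase reaction with 5 μM ATP (final) in 50 mM HEPES pH 7.4, 50 mM MgCl2, 5 mM MnCl2, 0.2 mM Na3VO4, 1 mM DTT, 1 h at 37° C. Phosphotyrosine detected via PY99/HRP and OPD at 490 nm; IC50 by four-parameter fit.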
# IGF-1R = molecular target: T2, IGF-1R (Homo sapiens, UniProt P08069); test: kinase inhibitory activity test (ELISA), IGF-1R; type: biochemical; conditions: ATP 5 μM, 1 hour at 37° C.
# T2 construct: purchased Millipore
# Method in brief: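 Poly(Glu,Tyr)4:1-coated plates; kinase reacted 1 h at 37 °C with 5 μM ATP (final) in HEPES pH 7.4 buffer with Mg2+/Mn2+. Phosphotyrosine detected by PY99 and HRP anti-mouse IgG with OPD at 490 nm; IC50 from four-parameter fit.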
# [1] = test system: phosphorylation of EGFR^T790M/L858R, AKT and ERK in NCI-H1975 cells; test: Western blot, EGFR phosphorylation and downstream signaling in NCI-H1975 cells; type: cell-based, human; conditions: FIG. 1
# Procedure: (§1) The tests were performed using conventional Western Blot (immunoblotting test), as follows. A certain number of A431 cells and NCI-H1975 cells in the logarithmic growth phase were inoculated on 6-well plate and adherent cultured overnight in the incubator. Replaced with serum-free medium and starved for 24 h, a certain concentration of compound was added and reacted for 2 h. 50 ng/mL of EGF stimulating factor was added and reacted for 10 min. The cells were lysed with lysate and samples were collected, and then the samples were taken for SDS-PAGE electrophoresis. After electrophoresis, the protein was transferred to a nitrocellulose membrane by a semi-dry transfer system. The nitrocellulose membrane was placed in a blocking solution (5% skimmed milk diluted with TBS containing 0.1% Tween 20) for 2 h at room temperature, and then incubated overnight at 4° C. in a primary antibody solution (diluted with TBS containing 0.1% Tween 20 by 1:500). It was washed for three times with TBS containing 0.1% Tween 20 for 15 min each time. The membrane was placed in a secondary antibody solution (horseradish peroxidase labeled goat anti-rabbit IgG, diluted with TBS containing 0.1% Tween 20 by 1:2000) and reacted for 1 h at room temperature. After washed for three times as above, the membrane was dyed with ECL plus reagent and photoed using image Quant LAS 4000 camera.
# [2] = test system: phosphorylation of EGFR^wt in A431 cells; test: Western blot, EGFR phosphorylation in A431 cells; type: cell-based, human; conditions: FIG. 2
# Procedure: as §1
# T1 sequence (P00533 25-1210 T790M/L858R): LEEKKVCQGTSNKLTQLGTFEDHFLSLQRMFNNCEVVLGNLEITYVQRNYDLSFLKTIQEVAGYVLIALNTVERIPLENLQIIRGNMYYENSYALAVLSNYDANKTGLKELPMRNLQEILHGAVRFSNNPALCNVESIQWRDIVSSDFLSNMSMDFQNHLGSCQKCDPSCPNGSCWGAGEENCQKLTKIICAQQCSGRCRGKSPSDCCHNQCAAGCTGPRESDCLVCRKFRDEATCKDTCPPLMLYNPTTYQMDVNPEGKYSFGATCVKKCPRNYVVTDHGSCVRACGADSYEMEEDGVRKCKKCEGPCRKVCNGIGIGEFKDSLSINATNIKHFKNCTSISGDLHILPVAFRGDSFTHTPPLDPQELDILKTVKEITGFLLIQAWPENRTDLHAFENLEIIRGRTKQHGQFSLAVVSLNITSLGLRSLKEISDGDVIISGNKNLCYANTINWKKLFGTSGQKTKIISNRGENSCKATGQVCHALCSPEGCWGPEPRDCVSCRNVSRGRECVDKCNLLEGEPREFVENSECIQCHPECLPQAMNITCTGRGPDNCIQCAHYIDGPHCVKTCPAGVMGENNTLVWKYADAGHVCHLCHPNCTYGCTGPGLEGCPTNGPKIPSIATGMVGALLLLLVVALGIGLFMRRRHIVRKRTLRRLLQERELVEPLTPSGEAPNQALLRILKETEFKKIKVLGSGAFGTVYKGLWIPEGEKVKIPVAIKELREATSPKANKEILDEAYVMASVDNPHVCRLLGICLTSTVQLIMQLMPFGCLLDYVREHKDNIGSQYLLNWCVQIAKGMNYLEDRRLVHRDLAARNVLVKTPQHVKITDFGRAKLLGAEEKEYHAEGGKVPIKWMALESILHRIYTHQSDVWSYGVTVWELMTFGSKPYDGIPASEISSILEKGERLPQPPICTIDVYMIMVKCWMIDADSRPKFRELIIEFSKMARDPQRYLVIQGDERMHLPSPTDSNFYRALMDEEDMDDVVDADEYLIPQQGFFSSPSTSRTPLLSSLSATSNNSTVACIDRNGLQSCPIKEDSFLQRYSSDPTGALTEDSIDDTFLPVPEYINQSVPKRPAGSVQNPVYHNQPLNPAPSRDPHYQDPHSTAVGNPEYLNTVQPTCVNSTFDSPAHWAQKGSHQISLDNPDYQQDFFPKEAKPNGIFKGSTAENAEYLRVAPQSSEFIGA
# T2 sequence (P08069 31-1367): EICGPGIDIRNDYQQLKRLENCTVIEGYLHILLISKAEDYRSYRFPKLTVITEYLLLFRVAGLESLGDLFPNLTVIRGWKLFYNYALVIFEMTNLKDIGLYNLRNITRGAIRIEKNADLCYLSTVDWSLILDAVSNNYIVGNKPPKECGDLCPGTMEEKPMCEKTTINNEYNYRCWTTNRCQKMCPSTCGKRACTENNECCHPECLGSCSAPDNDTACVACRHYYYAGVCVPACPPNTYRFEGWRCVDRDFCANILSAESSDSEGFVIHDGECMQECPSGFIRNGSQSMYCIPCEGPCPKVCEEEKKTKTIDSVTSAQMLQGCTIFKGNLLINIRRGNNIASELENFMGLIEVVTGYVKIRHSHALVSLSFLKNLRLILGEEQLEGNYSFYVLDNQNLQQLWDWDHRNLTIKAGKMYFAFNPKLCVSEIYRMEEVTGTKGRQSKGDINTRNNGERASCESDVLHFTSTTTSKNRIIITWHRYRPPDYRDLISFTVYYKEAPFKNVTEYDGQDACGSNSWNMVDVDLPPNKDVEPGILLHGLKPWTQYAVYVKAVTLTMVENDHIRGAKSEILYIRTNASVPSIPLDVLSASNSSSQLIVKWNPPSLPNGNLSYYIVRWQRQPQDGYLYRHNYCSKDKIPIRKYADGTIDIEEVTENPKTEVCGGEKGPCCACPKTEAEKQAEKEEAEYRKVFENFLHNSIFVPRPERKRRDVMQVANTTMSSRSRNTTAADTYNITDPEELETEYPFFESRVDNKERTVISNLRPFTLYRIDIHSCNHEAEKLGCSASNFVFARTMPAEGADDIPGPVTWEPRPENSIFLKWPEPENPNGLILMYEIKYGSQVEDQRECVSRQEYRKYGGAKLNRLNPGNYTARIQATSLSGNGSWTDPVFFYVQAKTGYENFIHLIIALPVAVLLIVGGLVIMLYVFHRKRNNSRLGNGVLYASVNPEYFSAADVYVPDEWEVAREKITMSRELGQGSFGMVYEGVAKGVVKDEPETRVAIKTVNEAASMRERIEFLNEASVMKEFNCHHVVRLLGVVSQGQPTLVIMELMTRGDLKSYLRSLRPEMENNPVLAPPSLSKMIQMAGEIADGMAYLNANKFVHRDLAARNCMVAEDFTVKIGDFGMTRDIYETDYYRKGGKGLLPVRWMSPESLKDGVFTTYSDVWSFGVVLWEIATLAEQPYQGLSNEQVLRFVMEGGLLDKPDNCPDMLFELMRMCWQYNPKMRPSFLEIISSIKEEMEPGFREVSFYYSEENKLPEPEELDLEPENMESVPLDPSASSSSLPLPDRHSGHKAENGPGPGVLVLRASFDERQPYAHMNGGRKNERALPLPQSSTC
smiles,measurement,setting,value
"C=CC(=O)Nc1cc(Nc2ncc(Cl)c(Nc3ccc4ccccc4c3)n2)c(OC)cc1N(C)CCN(C)C [CCB120067, N-((5-((5-chloro-4-((naphthalen-2-yl)amino))pyrimidin-2-yl)amino)-2-((N-methyl-N-dimethylaminoethyl)amino)-4-methoxyphenyl)acrylamide]",IC50,"EGFR^T790M/L858R; ELISA, ATP 5 μM, 1 hour at 37° C.",0.4 nM
same,kinase inhibitory activity (in words),EGFR^T790M/L858R; summary of Table 1,potent
same,IC50,IGF-1R,31.9 nM
same,inhibition of phosphorylation of EGFR^T790M/L858R and activation of AKT and ERK,"[1]; 2 h compound, EGF 50 ng/mL 10 min",significantly inhibit
same,"inhibitory activity on phosphorylated EGFR^T790M/L858R, Akt and Erk compared with CO1686",[1]; CCB120067 at 1 nM,comparable or slightly better than that of CO1686 at 100 nM concentration
same,inhibitory activity on phosphorylation of EGFR^wt,[2],weaker
